{
  "source": "patent US11464768B2",
  "about": "“Pimavanserin alone or in combination for use in the treatment of Alzheimer's disease psychosis” (ACADIA Pharmaceuticals Inc., priority 2016, dated 2022)",
  "origin": "cited, not measured here",
  "conditions": "tartrate salt; cited from earlier work",
  "data": [
    {"substance": "urea, N-[(4-fluorophenyl)methyl]-N-(1-methyl-4-piperidinyl)-N′-[[4-(2-methylpropoxy)phenyl]methyl]-,(2R,3R)-2,3-dihydroxybutanedioate (2:1) [Pimavanserin tartrate]", "values": [
      {"measurement": "solubility in water", "value": "freely soluble in water"}
    ]}
  ]
}
